According to US8313934B2, “Reduction of the toxic effect of impurities from raw materials by extractive fermentation” (LS9, Inc., priority 2007, dated 2012):

Tests used:
[1] = test system: LS9-ID1; assay: Effect of common toxins on growth of the production strain (shake flasks, OD); assay type: cell-based, E. coli; conditions: for % Inhibition for LS9-ID1: toxin added at the reported MIC, growth by OD vs control without toxin
Description: A culture of a genetically engineered strain of E. coli, LS9-ID1, was transferred from a frozen stock and incubated in Luria-Bertani broth for approximately three hours. The culture was transferred to a defined mineral medium commonly used for E. coli, M9, buffered and supplemented with thiamine and trace minerals. The culture was further incubated and used to inoculate the same fermentation media with 50 g/L of carbohydrate (glucose, fructose, some pentoses).
The toxicity towards microbial strains of many of the compounds in hemicelluloses and cellulose hydrolysates has been examined individually. In the case of E. coli, the toxicity is related to the hydrophobicity of the toxin. The effects of several of these compounds on the growth of certain microbial strains were evaluated. The tests were done in shake flasks by following a protocol similar to that described in example 1, above, but without the induction and the addition of alcohols.
Other concentrations were also tested to determine the range where the effect was observed. The inhibition level was reported as the ratio between growth in the absence of the toxin (control) minus growth in the presence of the toxin and growth in the control.

[2] = test system: LS9-ID1; assay: Extractive fermentation with toxin, with or without hydrophobic solvent: cell growth (OD600); assay type: cell-based, E. coli; conditions: for % Growth With Hexadecane: hexadecane as solvent; for % Growth With Eicosadecene: eicosadecene as solvent; for % Growth With Biodiesel: commercial biodiesel as solvent; for % Growth With C1:C12: methyl laureate as solvent
Description: Two sets of duplicate flasks were prepared with different concentrations of the toxin to be tested. One set served as the control, which included the toxin without the extractant, the hydrophobic solvent. In the second set, the extractant was added in a ratio of 1 volume of solvent per 3 volumes of fermentation broth. The flasks were then inoculated and incubated at 37° C. in agitated shakers. When the OD 600 reached a value of 1, the cultures were induced by the addition of 1 mM IPTG and 20 ml/L methanol. Cell growth and production of fatty acids methyl esters (FAME) was measured at 24 hours. In cultures without hydrophobic solvents (control), OD was measured directly in the fermentation broth. […] The OD was measured in this suspension.
(§1) To analyze FAME production, 0.5 ml of broth was well mixed with 0.5 ml of ethylacetate. The organic phase was analyzed by gas chromatography. In the samples with solvents, additional dilutions were applied. All the toxins were tested with ethyl oleate (C2:C18 ester, or C2:C18) as a solvent representative of a biodiesel. Growth and FAME production are reported as percentage of the control condition (no toxin added). Each result is the average of duplicate experiments.
The solvents methyl laureate (C1:C12 ester, or C1:C12), hexadecane (an alkane), eicosadecene (an alkene) and commercial biodiesel were tested.

[3] = test system: LS9-ID1; assay: Extractive fermentation with toxin, with or without hydrophobic solvent: FAME production (GC); assay type: cell-based, E. coli; conditions: 24 h, % of no-toxin control; for % FAME titer With C2:C18: ethyl oleate 1:3
Description: The production of fatty acid methyl and ethyl esters was analyzed by gas chromatography with flame ionization detector (GC-FID). The samples from fermentation broth were extracted with ethyl acetate in a ratio of 1:1 vol/vol. After strong vortexing, the samples were centrifuged and the organic phase was analyzed by gas chromatography (GC). The analysis conditions were as follows: instrument: Trace GC Ultra, Thermo Electron Corporation with Flame ionization detector (FID) detector; column: DB-1 (1% diphenyl siloxane; 99% dimethyl siloxane) CO1 UFM 1/0.1/5 01 DET from Thermo Electron Corporation, phase pH 5, FT: 0.4 μm, length 5 m, id: 0.1 mm; inlet conditions: 250° C. splitless, 3.8 min 1/25 split method used depending upon sample concentration with split flow of 75 ml/min; carrier gas, flow rate: Helium, 3.0 ml/min; block temperature: 330° C.; oven temperature: 0.5 minute hold at 50° C.; 100° C./minute to 330° C., 0.5 minute hold at 330° C.; detector temperature: 300° C.; injection volume: 2 μL; run time/flow rate: 6.3 min/3.0 ml/min (splitless method), 3.8 min/1.5 ml/min (split 1/25 method), 3.04 min/1.2 ml/min (split 1/50 method).
To determine the ability to perform extractive fermentations using products generated by the engineered strain of E. coli, LS9-ID1, to improve the performance of the fermentation in the presence of toxins, the fermentations were performed using a protocol similar to that described in example 1, above. Two sets of duplicate flasks were prepared with different concentrations of the toxin to be tested. One set served as the control, which included the toxin without the extractant, the hydrophobic solvent. In the second set, the extractant was added in a ratio of 1 volume of solvent per 3 volumes of fermentation broth. The flasks were then inoculated and incubated at 37° C. in agitated shakers. When the OD 600 reached a value of 1, the cultures were induced by the addition of 1 mM IPTG and 20 ml/L methanol. Cell growth and production of fatty acids methyl esters (FAME) was measured at 24 hours. In cultures without hydrophobic solvents (control), OD was measured directly in the fermentation broth. In flasks with solvent there was interference in OD measurement, and to eliminate this problem, the broth was centrifuged and the cell pellet was resuspended in the same volume of distilled water. The OD was measured in this suspension.
as §1

[4] = test system: LS9-ID1; assay: Solvent pretreatment of toxin-spiked media before fermentation: cell growth; assay type: cell-based, E. coli; conditions: Table 12, toxin 1.5 g/L; for % Growth With Pretreatment: media extracted with methyl laureate 1:3 vol:vol, 37° C., 60 minutes, before inoculation; for % Growth No solvent: untreated media
Text: The raw materials can be treated to remove the toxin prior to the fermentation. For this purpose it will be possible to use the bioproduct after the initial steps of purification (centrifugal separation for example) but prior to any polishing or finishing step. The sugar containing raw material can be placed in contact with the solvent in a batch or in a continuous counter current mode. After extraction, the raw material (aqueous phase) can be separated from the solvent by decantation or centrifugation.
Tests were performed similarly to that described in the above Examples. Fermentation media was prepared and spiked with the desired concentration of the toxin. Methyl laureate was used as a solvent representative of biodiesel. It was added to the fermentation media in a 1:3 vol:vol ratio. Solvent and broth were thoroughly mixed at 37° C. for 60 minutes. The aqueous layer was decanted in a separatory funnel and collected. The resulting media was then inoculated with LS9-ID1 and growth was compared against similar media containing the toxin but which had not been treated.

[5] = test system: E. coli; conditions: minimal inhibitory concentration that completely inhibits growth, as reported in the literature; cited from earlier work
[6] = toxin 1.5 g/L, ethyl oleate 1:3 vol solvent:broth, 24 h, % of no-toxin control
[7] = toxin 1.5 g/L, 24 h, % of no-toxin control (Tables 3-7)
[8] = toxin 3.0 g/L, ethyl oleate 1:3, 24 h, % of no-toxin control
[9] = toxin 3.0 g/L, 24 h, % of no-toxin control (Tables 3-7)

| SMILES | % Inhibition for LS9-ID1 [1] | % Growth With Hexadecane ([2]; Table 9, toxin 1.5 g/L) | % Growth No solvent ([2]; Table 9, toxin 1.5 g/L) | % Growth With Eicosadecene ([2]; Table 10, toxin 1.5 g/L) | % Growth No solvent ([2]; Table 10, toxin 1.5 g/L) | % Growth With Biodiesel ([2]; Table 11, toxin 1.5 g/L) | % Growth No solvent ([2]; Table 11, toxin 1.5 g/L) | % Growth With C2:C18 [2, 6] | % Growth No solvent [2, 7] | % Growth With C2:C18 [2, 8] | % Growth No solvent [2, 9] | % FAME titer With C2:C18 ([3]; toxin 1.5 g/L) | % FAME titer No solvent ([3]; toxin 1.5 g/L) | % FAME titer With C2:C18 ([3]; toxin 3.0 g/L) | % FAME titer No solvent ([3]; toxin 3.0 g/L) | % Growth With Pretreatment [4] | % Growth No solvent [4] | Reported MIC [5] | % of Growth inhibition ([1]; toxin 1.00 g/L) | % of Growth inhibition ([1]; toxin 1.50 g/L) | other results |
| --- | --- | --- | --- | --- | --- | --- | --- | --- | --- | --- | --- | --- | --- | --- | --- | --- | --- | --- | --- | --- | --- |
| COc1cc(C=O)cc(OC)c1O [Syringaldehyde] | 100% | 40.7% | 19.5% | 48.2% | 8.8% | 39.2% | 8.8% | 41.0% | 34.4% | 14.8% | 6.6% | 94.8% | 16.2% | 92.7% | 2.0% | 83.3% | 8.8% | 2500 µg/mL | – | – | % Growth With Co-treatment ([4]; co-treatment): 61.2% |
| O=Cc1ccc(CO)o1 [5-Hydroxymethylfurfural] | 100% | – | – | – | – | – | – | – | – | – | – | – | – | – | – | – | – | 4000 µg/mL | – | – | % Growth With Hexadecane ([2]; Table 9, toxin 2.0 g/L): 57.1%; % Growth No solvent ([2]; Table 9, toxin 2.0 g/L): 39.8%; % Growth With Eicosadecene ([2]; Table 10, toxin 2.0 g/L): 55.3%; % Growth No solvent ([2]; Table 10, toxin 2.0 g/L): 51.8%; % Growth With C2:C18 ([2]; toxin 4.0 g/L, ethyl oleate 1:3, 24 h, % of no-toxin control): 20.9%; % Growth No solvent ([2]; toxin 4.0 g/L, 24 h, % of no-toxin control): 4.7%; % Growth With C2:C18 ([2]; toxin 8.0 g/L, ethyl oleate 1:3, 24 h, % of no-toxin control): 9.1%; % Growth No solvent ([2]; toxin 8.0 g/L, 24 h, % of no-toxin control): 2.2% |
| COc1ccccc1O [Guaiacol] | 100% | 41.8% | 12.7% | 31.8% | 15.8% | – | – | 93.7% | 30.4% | 65.1% | 12.5% | 100.5% | 10.2% | 76.2% | 2.3% | – | – | 3000 µg/mL | 0% | 41.7% | % of Growth inhibition ([1]; toxin 2.00 g/L): 83.3%; % of Growth inhibition ([1]; toxin 3.00 g/L): 100%; % Growth With C1:C12 ([2]; Table 8, toxin 1.5 g/L): 88.6%; % Growth No solvent ([2]; Table 8, toxin 1.5 g/L): 18.3% |
| O=Cc1ccco1 [Furfural] | 100% | 38.5% | 17.7% | 56.7% | 33.3% | 49.7% | 33.3% | 71.9% | 40.0% | 53.6% | 21.5% | 72.7% | 35.5% | 43.2% | 4.5% | 69.6% | 33.3% | 3500 µg/mL | 0% | 60.0% | % of Growth inhibition ([1]; toxin 3.00 g/L): 18.5%; % Growth With C1:C12 ([2]; Table 8, toxin 3.0 g/L): 16.7%; % Growth No solvent ([2]; Table 8, toxin 3.0 g/L): 6.1% |
| Cc1ccc(O)c(O)c1 [4-Methyl catechol] | 25% | – | – | – | – | – | – | – | – | – | – | – | – | – | – | – | – | 1500 µg/mL | – | – | – |
| O=Cc1ccc(O)cc1 [4-hydroxybenzaldehyde] | 100% | 53.8% | 6.2% | 11.2% | 9.6% | – | – | – | – | – | – | – | – | – | – | – | – | 1250 µg/mL | – | – | % Growth With C1:C12 ([2]; Table 8, toxin 1.5 g/L): 33.0%; % Growth No solvent ([2]; Table 8, toxin 1.5 g/L): 20.2%; % Growth With C2:C18 ([2]; toxin 0.63 g/L, ethyl oleate 1:3, 24 h, % of no-toxin control): 68.0%; % Growth No solvent ([2]; toxin 0.63 g/L, 24 h, % of no-toxin control): 70.0%; % Growth With C2:C18 ([2]; toxin 1.25 g/L, ethyl oleate 1:3, 24 h, % of no-toxin control): 60.0%; % Growth No solvent ([2]; toxin 1.25 g/L, 24 h, % of no-toxin control): 45.0%; % FAME titer With C2:C18 ([3]; toxin 0.63 g/L): 72.6%; % FAME titer No solvent ([3]; toxin 0.63 g/L): 54.3%; % FAME titer With C2:C18 ([3]; toxin 1.25 g/L): 31.8%; % FAME titer No solvent ([3]; toxin 1.25 g/L): 18.1% |
